Laboratory results: patent US20170121344A1 (Siga Technologies, Inc., priority 2009, published 2017)
Where two headings read alike, the source gives them in different places.

Test system: Dengue-2 (Strain New Guinea C)
Assay: Viral yield assay against Dengue-2 in Vero cells
Format: cell-based, Dengue virus
Conditions: Dengue virus, read-out: Activity (EC50 in μM) DENV-2
Summary of the method: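 Infect Vero cells with virus (MOI 0.1), add compound or DMSO, incubate at 37° C, collect progeny at 48 hours post infection, then titrate on Vero cells to obtain EC50.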

[1] = DENV2, viral yield assay, Vero cells, MOI 0.1, 48 hours post infection

| SMILES | EC50 [1] [µM] | EC50 (DENV2, Vero, 48 h) [µM] |
| --- | --- | --- |
| COc1ccc(NC(=O)c2sc3nc(-c4ccc(OC)c(OC)c4)ccc3c2N)c(OC)c1 [Compound 536, 3-amino-N-(2,4-dimethoxyphenyl)-6-(3,4-dimethoxyphenyl)thieno[2,3-b]pyridine-2-carboxamide] | < 5 | – |
| Nc1c(C(=O)Nc2ccc(Cl)cc2Cl)sc2nc(-c3ccc4c(c3)OCO4)ccc12 [Compound 537, 3-amino-6-(1,3-benzodioxol-5-yl)-N-(2,4-dichlorophenyl)thieno[2,3-b]pyridine-2-carboxamide] | < 5 | – |
| Nc1c(C(=O)Nc2ccccc2F)sc2nc(-c3ccc4c(c3)OCO4)ccc12 [Compound 538, 3-amino-6-(1,3-benzodioxol-5-yl)-N-(2-fluorophenyl)thieno[2,3-b]pyridine-2-carboxamide] | < 5 | – |
| COc1ccc(-c2ccc3c(N)c(C(=O)Nc4ccc(F)cc4Cl)sc3n2)cc1OC [Compound 539, 3-amino-N-(2-chloro-4-fluoro-phenyl)-6-(3,4-dimethoxyphenyl)thieno[2,3-b] pyridine-2-carboxamide] | < 5 | – |
| COc1ccc(-c2ccc3c(N)c(C(=O)Nc4cccc(Cl)c4)sc3n2)cc1OC [Compound 540, 3-amino-N-(3-chlorophenyl)-6-(3,4-dimethoxyphenyl)thieno[2,3-b]pyridine-2-carboxamide] | < 5 | – |
| COc1ccc(-c2ccc3c(N)c(C(=O)Nc4ccc(F)cc4)sc3n2)cc1OC [Compound 541, 3-amino-6-(3,4-dimethoxyphenyl)-N-(4-fluorophenyl)thieno[2,3-b]pyridine-2-carboxamide] | – | < 5 |
| COc1cccc(-c2ccc3c(N)c(C(=O)Nc4ccc(C)c(Cl)c4)sc3n2)c1 [Compound 544, 3-amino-N-(3-chloro-4-mehtyl-phenyl)-6-(3-methoxyphenyl)thieno[2,3-b] pyridine-2-carboxamide] | < 5 | – |
| COc1cccc(-c2ccc3c(N)c(C(=O)Nc4ccc(Cl)cc4Cl)sc3n2)c1 [Compound 545, 3-amino-N-(2,4-dichlorophenyl)-6-(3-methoxyphenyl)thieno[2,3-b]pyridine-2-carboxamide] | < 5 | – |
| COc1cccc(-c2ccc3c(N)c(C(=O)Nc4cc(OC)ccc4Cl)sc3n2)c1 [Compound 548, 3-amino-N-(2-chloro-5-methoxy-phenyl)-6-(3-methoxyphenyl)thieno[2,3-b] pyridine-2-carboxamide] | < 5 | – |
| COc1cccc(-c2ccc3c(N)c(C(=O)Nc4ccc(Br)cc4C)sc3n2)c1 [Compound 549, 3-amino-N-(4-bromo-2-methyl-phenyl)-6-(3-methoxyphenyl)thieno[2,3-b] pyridine-2-carboxamide] | < 5 | – |
| COc1cccc(-c2ccc3c(N)c(C(=O)Nc4ccc(F)cc4C)sc3n2)c1 [Compound 551, 3-amino-N-(4-fluoro-2-methyl-phenyl)-6-(3-methoxyphenyl)thieno[2,3-b] pyridine-2-carboxamide] | < 5 | – |
| CCOc1cccc(NC(=O)c2sc3nc(-c4cccc(OC)c4)ccc3c2N)c1 [Compound 552, 3-amino-N-(3-ethoxyphenyl)-6-(3-methoxyphenyl)thieno[2,3-b]pyridine-2-carboxamide] | < 5 | – |
| COc1cccc(-c2ccc3c(N)c(C(=O)Nc4ccc(C)cc4)sc3n2)c1 [Compound 553, 3-amino-6-(3-methoxyphenyl)-N-(p-tolyl)thieno[2,3-b]pyridine-2-carboxamide] | < 5 | – |
| COc1cccc(-c2ccc3c(N)c(C(=O)Nc4ccc(C)cc4C)sc3n2)c1 [Compound 554, 3-amino-N-(2,4-dimethylphenyl)-6-(3-methoxyphenyl)thieno[2,3-b]pyridine-2-carboxamide] | < 5 | – |
| COc1cccc(-c2ccc3c(N)c(C(=O)Nc4ccc(Br)cc4F)sc3n2)c1 [Compound 556, 3-amino-N-(4-bromo-2-fluoro-phenyl)-6-(3-methoxyphenyl)thieno[2,3-b]pyridine-2-carboxamide] | < 5 | – |
| COc1cccc(-c2ccc3c(N)c(C(=O)Nc4ccc(F)cc4Cl)sc3n2)c1 [Compound 557, 3-amino-N-(2-chloro-4-fluoro-phenyl)-6-(3-methoxyphenyl)thieno[2,3-b] pyridine-2-carboxamide] | < 5 | – |
| COc1cccc(-c2ccc3c(N)c(C(=O)Nc4cc(C(F)(F)F)ccc4OC)sc3n2)c1 [Compound 558, 3-amino-6-(3-methoxyphenyl)-N-[2-methoxy-5-(trifluoromethyl)phenyl] thieno[2,3-b]pyridine-2-carboxamide] | < 5 | – |
| COc1cccc(-c2ccc3c(N)c(C(=O)Nc4cc(C(F)(F)F)ccc4Cl)sc3n2)c1 [Compound 560, 3-amino-N-[2-chloro-5-(trifluoromethyl)phenyl]-6-(3-methoxyphenyl)thieno [2,3-b]pyridine-2-carboxamide] | < 5 | – |
| COc1cccc(-c2ccc3c(N)c(C(=O)Nc4cccc(C)c4C)sc3n2)c1 [Compound 562, 3-amino-N-(2,3-dimethylphenyl)-6-(3-methoxyphenyl)thieno[2,3-b]pyridine-2-carboxamide] | < 5 | – |

| SMILES | EC50 [1] [µM] | EC50 (DENV2, Vero, 48 h) [µM] |
| --- | --- | --- |
| COc1cccc(-c2ccc3c(N)c(C(=O)Nc4cccc(Cl)c4Cl)sc3n2)c1 [Compound 563, 3-amino-N-(2,3-dichlorophenyl)-6-(3-methoxypnenyl)thieno[2,3-b]pyridine-2-carboxamide] | < 5 | – |
| COc1cccc(-c2ccc3c(N)c(C(=O)Nc4cc(Cl)cc(Cl)c4)sc3n2)c1 [Compound 564, 3-amino-N-(3,5-dichlorophenyl)-6-(3-methoxyphenyl)thieno[2,3-b]pyridine-2-carboxamide] | < 5 | – |
| COc1cccc(-c2ccc3c(N)c(C(=O)Nc4cc(F)ccc4C)sc3n2)c1 [Compound 565, 3-amino-N-(5-fluoro-2-methyl-phenyl)-6-(3-methoxyphenyl)thieno[2,3-b] pyridine-2-carboxamide] | < 5 | – |
| CCSc1nc2ccc(NC(=O)c3sc4nc(-c5cccc(OC)c5)ccc4c3N)cc2s1 [Compound 567, 3-amino-N-(2-ethylsulfanyl-1,3-benzo-thiazol-6-yl)-6-(3-methoxphenyl)thieno [2,3-b]pyridine-2-carboxamide] | < 5 | – |
| CCCSc1nc2ccc(NC(=O)c3sc4nc(-c5cccc(OC)c5)ccc4c3N)cc2s1 [Compound 568, 3-amino-6-(3-methoxyphenyl)-N-(2-propylsulfanyl-1,3-benzothiazol-6-yl) thieno[2,3-b]pyridine-2-carboxamide] | < 5 | – |
| COc1ccc(-c2ccc3c(N)c(C(=O)Nc4cccc(Cl)c4C)sc3n2)cc1OC [Compound 573, 3-amino-N-(3-chloro-2-methyl-phenyl)-6-(3,4-dimethoxyphenyl)thieno[2,3-b] pyridine-2-carboxamide] | < 5 | – |
| COc1ccc(-c2ccc3c(N)c(C(=O)Nc4ccc(Br)cc4C)sc3n2)cc1OC [Compound 578, 3-amino-N-(4-bromo-2-methyl-phenyl)-6-(3,4-dimethoxyphenyl)thieno[2,3-b] pyridine-2-carboxamide] | < 5 | – |
| COc1ccc(-c2ccc3c(N)c(C(=O)Nc4ccc(Br)c(C)c4)sc3n2)cc1OC [Compound 579, 3-amino-N-(4-bromo-3-methyl-phenyl)-6-(3,4-dimethoxyphenyl)thieno[2,3-b] pyridine-2-carboxamide] | < 5 | – |
| COc1ccc(-c2ccc3c(N)c(C(=O)Nc4ccc5c(c4)OCO5)sc3n2)cc1OC [Compound 580, 3-amino-N-(1,3-benzodioxol-5-yl)-6-(3,4-dimethoxyphenyl)thieno[2,3-b] pyridine-2-carboxamide] | – | < 5 |
| COc1ccc(-c2ccc3c(N)c(C(=O)Nc4ccccc4C)sc3n2)cc1OC [Compound 581, 3-amino-6-(3,4-dimethoxyphenyl)-N-(o-tolyl)thieno[2,3-b]pyridine-2-carboxamide] | < 5 | – |
| CCOc1cccc(NC(=O)c2sc3nc(-c4ccc(OC)c(OC)c4)ccc3c2N)c1 [Compound 582, 3-amino-6-(3,4-dimethoxyphenyl)-N-(3-ethoxyphenyl)thieno[2,3-b]pyridine-2-carboxamide] | – | < 5 |
| COc1ccc(-c2ccc3c(N)c(C(=O)Nc4ccc(Cl)c(C(F)(F)F)c4)sc3n2)cc1OC [Compound 585, 3-amino-N-[4-chloro-3-(trifluoromethyl)phenyl]-6-(3,4-dimethoxyphenyl)thieno [2,3-b]pyridine-2-carboxamide] | < 5 | – |
| Cc1c(Cl)cccc1NC(=O)c1sc2nc(-c3ccc4c(c3)OCO4)ccc2c1N [Compound 586, 3-amino-6-(1,3-benzodioxol-5-yl)-N-(3-chloro-2-methyl-phenyl)thieno[2,3-b] pyridine-2-carboxamide] | < 5 | – |
| Nc1c(C(=O)Nc2cc(Cl)ccc2Cl)sc2nc(-c3ccc4c(c3)OCO4)ccc12 [Compound 587, 3-amino-6-(1,3-benzodioxol-5-yl)-N-(2,5-dichlorophenyl)thieno[2,3-b]pyridine-2-carboxamide] | < 5 | – |
| Cc1ccc(C)c(NC(=O)c2sc3nc(-c4ccc5c(c4)OCO5)ccc3c2N)c1 [Compound 588, 3-amino-6-(1,3-benzodioxol-5-yl)-N-(2,5-dimethylphenyl)thieno[2,3-b]pyridine-2-carboxamide] | < 5 | – |
| COc1ccc(Cl)c(NC(=O)c2sc3nc(-c4ccc5c(c4)OCO5)ccc3c2N)c1 [Compound 589, 3-amino-6-(1,3-benzodioxol-5-yl)-N-(2-chloro-5-methoxy-phenyl)thieno[2,3-b] pyridine-2-carboxamide] | < 5 | – |
| Cc1cc(NC(=O)c2sc3nc(-c4ccc5c(c4)OCO5)ccc3c2N)ccc1Br [Compound 590, 3-amino-6-(1,3-benzodioxol-5-yl)-N-(4-bromo-3-methyl-phenyl)thieno[2,3-b] pyridine-2-carboxamide] | < 5 | – |
| CCc1cccc(NC(=O)c2sc3nc(-c4ccc5c(c4)OCO5)ccc3c2N)c1 [Compound 592, 3-amino-6-(1,3-benzodioxol-5-yl)-N-(3-ethylphenyl)thieno[2,3-b]pyridine-2-carboxamide] | < 5 | – |
